Read-outs that look alike come from different tables or passages of the source. Where a SMILES comes first, the peptide text is derived from it. Side-chain parts run from the residue outwards. The star is where a group is joined. X1 = CC(=O)N1CCC(C(=O)N(CCCN2CCC(Cc3ccc(C(=O)*)cc3)CC2)c2ccc(C)c(Cl)c2)CC1; PEG4 = NCCOCCOCCOCCOCCC(=O)O

These results are taken from publication PMC10223265 (Viruses, 2023).

In data set [1] the test system is HIV-1 J32228M4 (subtype D, R5). The data set is described as follows: HIV-1 infection assay, primary isolate J32228M4. The settings on record: Human immunodeficiency virus 1, CEMx174 5.25 M7 cells. The format is cell-based.
In data set [2] the test system is HIV-1 BaL strain (subtype B, R5). The data set is described as follows: HIV-1 infection assay (p24 ELISA), laboratory-adapted R5 virus. The format is cell-based. The settings on record: Human immunodeficiency virus 1, BAL, CEMx174 5.25M7.
The target of another data set is CCR5 (Homo sapiens, UniProt P51681). Briefly: RANTES-induced calcium mobilization assay in CCR5-expressing HEK293 cells. The format is cell-based. The settings on record: RANTES 34.6 nM, HEK293 cells expressing Gα15 and CCR5, Fluo-4. Background: Calcium flux is commonly read through the fluorescence of an indicator in the cells.
The test system of data set [3] is HIV-1 92UG029 (subtype A, X4). The data set is described as follows: HIV-1 infection assay, primary isolate 92UG029. It counts as cell-based. The settings on record: Human immunodeficiency virus 1, primary isolate 92UG029, subtype A, CEMx174 5.25 M7 cells.
For data set [4], the system named is HIV-1 91US_4 (subtype B, R5). The data set is described as follows: HIV-1 infection assay, primary isolate 91US_4. It counts as cell-based. The note with it: Human immunodeficiency virus 1, primary isolate 91US_4, subtype B, CEMx174 5.25 M7 cells.
The test system of data set [5] is HIV-1 strain 89BZ167 (subtype B, X4). Briefly: HIV-1 infection assay, primary isolate 89BZ167. The note with it: Human immunodeficiency virus 1, CEMx174 5.25M7. The format is cell-based.
Data set [6] can be described thus: CD spectroscopy of isolated peptides. The settings on record: 10 μM, [θ]222nm. It counts as physicochemical.
Data set [7] in a line: Solubility (saturated solution, RP-HPLC). The format is physicochemical.
A further data set has as its target proteinase K (Parengyodontium album, UniProt P06873). The data set is described as follows: Metabolic stability in proteinase K solution. The format is in vitro ADME. The settings on record: proteinase K 100 ng/mL, 50 μM peptide, 37 °C, 4-h incubation, read-out: original amount remaining.
Another data set concerns CEMx174 5.25M7 cells. The data set is described as follows: Cell Counting Kit-8 (CCK8) cytotoxicity assay. The settings on record: at 2000 nM. It counts as cell-based. In general terms: Tetrazolium assays rely on reduction of a dye to a coloured formazan, in cell work by metabolically active cells.
A short description of data set [8]: Metabolic stability in rat plasma. The format is in vitro ADME. The note with it: 37 °C, 4-h incubation, read-out: degradation.
[9] abbreviates: PBS pH 7.4, room temperature, read-out: Solubility in PBS (pH 7.4).

Sequence of proteinase K (P06873 106-384): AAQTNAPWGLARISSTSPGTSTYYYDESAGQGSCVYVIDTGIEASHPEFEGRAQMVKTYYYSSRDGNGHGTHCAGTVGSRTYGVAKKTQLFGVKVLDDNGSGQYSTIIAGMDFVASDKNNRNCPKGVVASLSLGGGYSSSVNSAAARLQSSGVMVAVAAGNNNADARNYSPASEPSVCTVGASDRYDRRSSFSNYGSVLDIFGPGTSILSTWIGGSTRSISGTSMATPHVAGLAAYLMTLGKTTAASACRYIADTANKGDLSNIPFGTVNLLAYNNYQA
Sequence of CCR5 (P51681 whole entry): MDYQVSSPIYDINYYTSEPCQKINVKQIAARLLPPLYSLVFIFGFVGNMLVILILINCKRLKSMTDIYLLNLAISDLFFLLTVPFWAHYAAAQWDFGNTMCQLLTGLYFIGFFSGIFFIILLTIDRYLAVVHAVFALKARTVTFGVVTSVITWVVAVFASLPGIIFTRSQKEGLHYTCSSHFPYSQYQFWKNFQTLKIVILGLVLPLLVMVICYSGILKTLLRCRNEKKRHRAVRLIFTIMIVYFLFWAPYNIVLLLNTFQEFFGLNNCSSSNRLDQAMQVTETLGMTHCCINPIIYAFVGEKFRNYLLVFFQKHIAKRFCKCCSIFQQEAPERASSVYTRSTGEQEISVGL

As a reminder, the EC50 is the concentration that produces a half-maximal response. Usually IC50 stands for the point on the concentration scale where inhibition reaches its midpoint. For `CC(=O)N1CCC(C(=O)N(CCCN2CCC(Cc3ccc(C(N)=O)cc3)CC2)c2ccc(C)c(Cl)c2)CC1` [TAK-220], the EC50 in data set [1] is 161 ± 6.6 nM; in [2] it was 23.8 ± 13.3 nM; in data set [3], over 300 nM; in [4] it was 12.1 ± 2.7 nM; in data set [5], over 300 nM. Also, the IC50 at CCR5 worked out at 0.74 nM.

Broadly, the solubility is how much of the substance goes into solution per volume. A word on the fraction remaining: it is the share of the starting amount still present when the sample was taken. Regarding `CC[C@H](C)[C@H](NC(=O)[C@H](CO)NC(=O)[C@H](CCC(=O)O)NC(=O)[C@H](CCC(=O)O)NC(=O)[C@H](CCC(N)=O)NC(=O)[C@H](CCCCN)NC(=O)[C@H](CCCCN)NC(=O)[C@@H](NC(=O)[C@H](CCC(N)=O)NC(=O)[C@H](CCC(=O)O)NC(=O)[C@H](CCC(=O)O)NC(=O)[C@@H](NC(=O)[C@H](CCCCN)NC(=O)[C@H](CCCCN)NC(=O)[C@@H](NC(=O)[C@H](CC(C)C)NC(=O)[C@H](CCC(=O)O)NC(=O)[C@H](CCC(=O)O)NC(=O)[C@H](CO)NC(=O)[C@H](CCCCN)NC(=O)[C@H](CCCCN)NC(=O)[C@@H](NC(=O)[C@H](CC(C)C)NC(=O)[C@H](CCC(=O)O)NC(=O)[C@H](CCC(=O)O)NC(=O)[C@@H](NC(=O)[C@H](CCCCN)NC(=O)[C@H](CCCCN)NC(=O)[C@H](CC(=O)O)NC(=O)[C@H](Cc1c[nH]c2ccccc12)NC(=O)[C@H](CCC(=O)O)NC(=O)[C@H](CCC(=O)O)NC(=O)[C@H](Cc1c[nH]c2ccccc12)NC(=O)[C@@H](NC(=O)[C@H](CCSC)NC(C)=O)[C@@H](C)O)[C@@H](C)CC)[C@@H](C)CC)[C@@H](C)CC)[C@@H](C)CC)[C@@H](C)CC)C(=O)N[C@@H](CCCCN)C(=O)N[C@@H](CCCCN)C(=O)N[C@@H](CCCCNC(=O)CCOCCOCCOCCOCCNC(=O)c1ccc(CC2CCN(CCCN(C(=O)C3CCN(C(C)=O)CC3)c3ccc(C)c(Cl)c3)CC2)cc1)C(N)=O` [AP3P4E] (Ac-MTWEEWDKKIEELIKKSEELIKKIEEQIKKQEESIKKK([PEG4-X1])-NH2), the “helical content (isolated peptide)” value in [6] is recorded as 83%. The solubility at 24 h in data set [7] (setting [9]) was over 60000 µg/mL; in data set [7] (dd-H2O, H2O, room temperature, read-out: Solubility in H2O), over 60000 µg/mL. The fraction remaining at 4 h, 50 μM with proteinase K is 89.9%. Moreover, the cytotoxicity result with CEMx174 5.25M7 cells is “no cytotoxicity”.

Regarding enfuvirtide, the solubility thermodynamic at 24 h in data set [7] (setting [9]) came out at 1020 ± 30 µg/mL; in [7] (water (dd-H2O), H2O, room temperature, read-out: Solubility in H2O), 330 ± 10 µg/mL. For the same molecule, the amount remaining at 4 h, 50 μM at proteinase K came to 35.8%. For the same molecule, the metabolised at 4 h, 50 μM in data set [8] stood at 68%.

In the case of `CC[C@H](C)[C@H](NC(=O)[C@H](CO)NC(=O)[C@H](CCC(=O)O)NC(=O)[C@H](CCC(=O)O)NC(=O)[C@H](CCC(N)=O)NC(=O)[C@H](CCCCN)NC(=O)[C@H](CCCCN)NC(=O)[C@@H](NC(=O)[C@H](CCC(N)=O)NC(=O)[C@H](CCC(=O)O)NC(=O)[C@H](CCC(=O)O)NC(=O)[C@@H](NC(=O)[C@H](CCCCN)NC(=O)[C@H](CCCCN)NC(=O)[C@@H](NC(=O)[C@H](CC(C)C)NC(=O)[C@H](CCC(=O)O)NC(=O)[C@H](CCC(=O)O)NC(=O)[C@H](CO)NC(=O)[C@H](CCCCN)NC(=O)[C@H](CCCCN)NC(=O)[C@@H](NC(=O)[C@H](CC(C)C)NC(=O)[C@H](CCC(=O)O)NC(=O)[C@H](CCC(=O)O)NC(=O)[C@@H](NC(=O)[C@H](CCCCN)NC(=O)[C@H](CCCCN)NC(=O)[C@H](CC(=O)O)NC(=O)[C@H](Cc1c[nH]c2ccccc12)NC(=O)[C@H](CCC(=O)O)NC(=O)[C@H](CCC(=O)O)NC(=O)[C@H](Cc1c[nH]c2ccccc12)NC(=O)[C@@H](NC(=O)[C@H](CCSC)NC(C)=O)[C@@H](C)O)[C@@H](C)CC)[C@@H](C)CC)[C@@H](C)CC)[C@@H](C)CC)[C@@H](C)CC)C(=O)N[C@@H](CCCCN)C(=O)N[C@@H](CCCCN)C(N)=O` [AP3] (Ac-MTWEEWDKKIEELIKKSEELIKKIEEQIKKQEESIKK-NH2), the “helical content (isolated peptide)” value in data set [6] amounted to 86%. The IC50 at CCR5 is over 625 nM.
